# Experimental data reported in US20030224503A1, “In-situ microorganism generation for treating subsurface DNAPL source zones” (priority 2002, published 2003).
# Tested on: groundwater microorganisms
# Settings: both DNAPL test sites (MW-12R, RW-1)
# From the text: The test sites are located at a property where fractured bedrock has been contaminated with PCE and TCE DNAPL to a depth of approximately 120 feet below ground surface.
smiles,measurement,setting,value
CC(=O)O [acetic acid],adaptation of groundwater microorganisms,"after injection of acetic acid, FIG. 4",increased
same,change in biomass of groundwater microorganisms,"fractured bedrock, after vs before injection of acetic acid, FIG. 3",increased
